Where a name gives a salt, the structure may show the parent alone.
Tests used:
[1] = molecular target: T1, RORα (Homo sapiens, UniProt P35398); assay: RORE reporter transcription in cells partially depleted of cholesterol (HPCD plus lovastatin, LDL-free serum); settings: for Transcription of the RORE reporter in response to compound (in words): HPCD and lovastatin treated cells, compared to vehicle; for fold induction at 10 µM: read-out: Fold induction (ROR alpha transcriptional activity)
T1 sequence (P35398 1-556 isoform P35398-1): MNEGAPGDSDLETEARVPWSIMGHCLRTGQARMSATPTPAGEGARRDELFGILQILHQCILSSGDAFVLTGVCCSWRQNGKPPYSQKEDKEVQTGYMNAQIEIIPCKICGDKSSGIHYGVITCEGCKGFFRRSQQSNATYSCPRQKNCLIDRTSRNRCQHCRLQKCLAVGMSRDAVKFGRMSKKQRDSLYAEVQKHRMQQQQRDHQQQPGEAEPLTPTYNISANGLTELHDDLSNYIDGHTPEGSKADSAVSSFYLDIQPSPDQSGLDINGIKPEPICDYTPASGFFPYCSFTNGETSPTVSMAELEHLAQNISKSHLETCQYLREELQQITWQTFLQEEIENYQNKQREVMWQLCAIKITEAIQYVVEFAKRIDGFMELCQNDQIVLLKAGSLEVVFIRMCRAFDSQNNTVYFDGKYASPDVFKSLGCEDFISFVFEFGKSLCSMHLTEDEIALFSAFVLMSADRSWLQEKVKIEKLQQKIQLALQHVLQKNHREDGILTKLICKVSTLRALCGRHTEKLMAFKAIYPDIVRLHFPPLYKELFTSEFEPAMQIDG
Text: We next establish whether in eukaryotic cells partially depleted of cholesterol, RORα transcriptional activity can be reconstituted by addition of cholesterol. We therefore treat the cells with hydroxypropyl-β-cyclodextrin (HPCD), a cyclodextrin derivative known to function as a cholesterol shuttle. HPCD treatment is used in experiments aiming at the partial depletion of intracellular cholesterol. In order to prevent an increase of intracellular cholesterol through the activation of the mevalonate pathway, cells are also treated with lovastatin while they are fed with a medium containing LDL-free serum.

[2] = molecular target: T2, RORα-LBD (Homo sapiens, UniProt P35398); assay: Ligand exchange screening by mass spectrometry (ESI Q-Tof, non-covalent complexes); assay type: binding; settings: for Displacement of cholesterol bound to the ROR-LBD (mass spectrometry): 10-fold molar excess of ligand, overnight at 4° C., protein 135 μM
T2 construct: (His)6RORα-LBD269-556 is produced in Sf9 cells; (His)6 (N); made in house; host or cells: Sf9 insect cells
T2 sequence (P35398 269-556 isoform P35398-1): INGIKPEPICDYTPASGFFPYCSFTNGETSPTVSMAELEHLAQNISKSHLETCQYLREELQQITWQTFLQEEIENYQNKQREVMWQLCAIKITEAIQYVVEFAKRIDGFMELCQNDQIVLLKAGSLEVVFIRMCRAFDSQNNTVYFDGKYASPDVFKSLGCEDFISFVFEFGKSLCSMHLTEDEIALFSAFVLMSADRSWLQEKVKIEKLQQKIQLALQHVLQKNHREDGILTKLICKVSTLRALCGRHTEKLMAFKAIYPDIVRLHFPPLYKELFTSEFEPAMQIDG
Method: (His)6RORα-LBD269-556 is produced in Sf9 cells and purified by Ni-NTA chromatography followed by size exclusion chromatography. The protein in Tris-HCl buffer at a concentration of 135 μM is incubated overnight at 4° C., with a 10-fold molar excess of 25-hydroxycholesterol (5-cholesten-3beta, 25-diol) or cholesterol sulfate (5-cholesten-3beta-ol-sulfate). Prior to mass spectrometry analysis, the protein is subjected to fast buffer exchange in 50 mM ammonium acetate pH 7.0 by size exclusion chromatography using disposable Centri∘Spin 20 columns (Princeton Separations, Adelphia, N.J.) according to manufacturer′s instructions. Mass spectrometry is carried out using a Q-Tof (Micromass, Manchester, UK) quadrupole time-of-flight hybrid tandem mass spectrometer equipped with a Micromass Z-type electrospray ionization source (ESI). The acquisition mass range is typically m/z 1500-4500 in 5 seconds. The mass spectrometer is tuned in order to allow detection of multiply-charged species of non-covalent complexes. The source block temperature and desolvation temperature are kept at 50° C. and 80° C., respectively. Sample cone voltage (Vc) is set to 23 volts for standard measurements. In-source induced fragmentation experiments are performed by increasing Vc up to 100 volts. The protein solution is infused at a flow rate of 10 μl/min. Data are recorded and processed using Masslynx software. Spectra are deconvoluted using MaxEnt analysis software (Micromass, Manchester, UK).
Generation of the construct (His)6RORα-LBD270-523, fermentation and purification are done as described above. […] The resulting solution is incubated overnight at 37° C. and further purified by size exclusion chromatography on a SPX75 column, before concentrating to 17.6 mg/ml for crystallization trials. MS determination of the native complex is done as described previously (Kallen et al., Structure, Vol.10, 1697-1707, 2002). A control experiment is done by incubating the same amount of RORα LBD protein with 5% DMSO under identical conditions. The protein concentration is approximately 15 μM in 50 mM AcONH4, pH 7.0. Both spectra are recorded under identical conditions with Vc=20 volts.

[3] = molecular target: T1, RORα; assay: RORE-tk-luc luciferase reporter assay in U2OS cells in essentially sterol free medium, fluvastatin treatment; assay type: cell-based
Method: Mammalian cells receive cholesterol by uptake from lipoproteins (LDL-cholesterol) and are able to synthesize cholesterol through the mevalonate pathway. In a situation where cells are cultured under conditions essentially sterol free, a key transcription factor, SREBP will be proteolytically cleaved and this releases a transcription factor to the nucleus. This transcription factor is able to transcriptionally activate HMG-CoA reductase, which is a critical step in the cholesterol biosynthesis through the mevalonate pathway. Statins, which are know drugs for hypercholesterol state are specific inhibitors of the HMG-CoA reductase. When cells are cultivated in sterol free medium, their HMG-CoA reductase is strongly activated. In this experiment cells, cultivated in medium essentially sterol free, are treated with fluvastatin. […] U2OS cells are transfected with expression vector for RORα (ROR) together with a luciferase reporter gene bearing a consensus response element for RORα (RORE-tk-luc). Luciferase activity is assayed in cells from 6 well plates and related to the activity in cells transfected with or without treatment with fluvastatin. The results are normalized to the protein content.

[4] = molecular target: T1, RORα; assay: Screen of cholesterol derivatives for binding of RORα to the RORE in essentially cholesterol-free medium; settings: baculovirus-expressed RORα
Text: The substances identified by rational design can be further analyzed in drug screening assay. The drug screening assays of the present invention may use any of a number of assays for measuring the functionality of RORα, including for the ability of RORα following ligand binding to transcriptionally regulate a gene, by increasing phosphorylation of RORα, by allowing RORα to dimerize or to heterodimerize with another nuclear receptor, by improving its ability to interact with co-activators, by changing its conformation and by increasing its ability to bind DNA. In one binding assay, a nucleic acid containing a RORα binding site is placed on a coated or onto a solid support. A preferred binding site is a response element (RORE) composed of a 6 bp AT rich motif immediately preceding a half site AGGTCA and the possible variants of this response element that are given in Giguere et al. 1994, Genes & Development 8:538-553, Mc Broom et al. 1995 Mol.Cell. Biol. 15: 796-808, Moraitis & Giguere, 1999; Molecular Endocrinology. 13:431-439. Methods for placing the nucleic acid on the solid support are well known in the art and include linking biotin to the nucleic acid and linking avidin to the solid support. The RORα is allowed to equilibrate with the nucleic acid and drugs are tested to see if they disrupt or enhance the binding. […]

[5] = compounds 10 μM, cells treated with HPCD and lovastatin, LDL-free serum, control = 1

Row | Compound | Fold induction (ROR alpha transcriptional activity) ([1]; 10 µM) | Transcription of the RORE reporter in response to compound (in words) [1] | fold induction at 10 µM [1] | further results
1 | CCC(CC[C@@H](C)[C@H]1CC[C@H]2[C@@H]3CC=C4C[C@@H](OC(C)=O)CC[C@]4(C)[C@H]3CC[C@]12C)C(C)C (stereo partly drawn) [5-Cholesten-24beta, 5-Cholesten-24β-ethyl-3β-ol acetate] | 1 | does not trigger any increase | – | –
2 | CC(C)CCC[C@@H](C)[C@H]1CC[C@H]2[C@@H]3CC[C@H]4C[C@@H](O)CC[C@]4(C)[C@H]3CC[C@]12C [Cholestanol] | – | stimulated | – | Fold induction (ROR alpha transcriptional activity) [1, 5]: 2.4
3 | C[C@H](CCCC(C)(C)O)[C@H]1CC[C@H]2[C@@H]3CC=C4C[C@@H](O)CC[C@]4(C)[C@H]3CC[C@]12C [25-OH-Chol, 5-cholesten-3beta, 25-diol] | – | – | 1.6 | Displacement of cholesterol bound to the ROR-LBD (mass spectrometry) [2]: able to fully displace cholesterol
4 | CC(C)n1c(/C=C/C(O)CC(O)CC(=O)O)c(-c2ccc(F)cc2)c2ccccc21 (stereo not shown) [Fluvastatin] | – | – | – | fold induction at 5 µM ([3]; fluvastatin +5 μM, paired control 76, read-out: Fold induction (RORα transcriptional activity, luciferase)): 48; fold induction at 10 µM ([3]; fluvastatin +10 μM, paired control 93, read-out: Fold induction (RORα transcriptional activity, luciferase)): 38
5 | CC(C)CCC[C@](C)(O)[C@H]1CC[C@H]2[C@@H]3CC=C4C[C@@H](O)CC[C@]4(C)[C@H]3CC[C@@]21C [20(S)-OH-Chol] | 1.2 | – | – | –
6 | CC(C)CCC[C@@H](C)[C@H]1CC[C@H]2[C@@H]3CC=C4C[C@@H](OS(=O)(=O)O)CC[C@]4(C)[C@H]3CC[C@]12C [Chol. Sulfate, 5-cholesten-3beta-ol-sulfate] | – | – | 5.4 | Displacement of cholesterol (RORα binding to RORE screen) [4]: able to displace cholesterol; Exchange of cholesterol by cholesterol-sulfate, MS-analysis ([2]; 1.0 mM ligand, 73 μM (His)6RORαLBD270-523, overnight at 37° C.): confirmed by MS-analysis; Displacement of cholesterol bound to the ROR-LBD (mass spectrometry) ([2]; listed as cholesterol sulfate): able to fully displace cholesterol; Displacement of cholesterol bound to the ROR-LBD (mass spectrometry) ([2]; listed as cholesterol-sulfate): could be exchanged with cholesterol-sulfate; Stability of ligand/ROR-LBD complex versus in-source collisions at various cone-voltages ([2]; compared with apo-ROR-LBD, Vc up to 100 volts): more stable
7 | CC(C)CCC[C@@H](C)[C@H]1CC[C@H]2C3=CC=C4C[C@@H](O)CC[C@]4(C)[C@H]3CC[C@]12C [7-Dehydrochol, 7-Dehydrocholesterol] | – | – | – | Fold induction (ROR alpha transcriptional activity) [1, 5]: 4.6

More lines, main results first:

Row | Fold induction (ROR alpha transcriptional activity) ([1]; 10 µM) | Transcription of the RORE reporter in response to compound (in words) [1] | Compound | fold induction at 10 µM [1] | further results
8 | 1.2 | – | CC(C)CC[C@@H](O)[C@@H](C)[C@H]1CC[C@H]2[C@@H]3CC=C4C[C@@H](O)CC[C@]4(C)[C@H]3CC[C@]12C [22(R)-OH-Chol] | – | –
9 | 1.5 | – | C[C@@H](CO)CCC[C@@H](C)[C@H]1CC[C@H]2[C@@H]3CC=C4C[C@@H](O)CC[C@]4(C)[C@H]3CC[C@]12C [27-OH-Chol] | – | –
10 | – | stimulated | CC(C)CCC[C@@H](C)[C@H]1CC[C@H]2[C@@H]3CC=C4C[C@@H](O)CC[C@]4(C)[C@H]3CC[C@]12C [Cholesterol, cholest-5-en-3beta-ol] | 3.3 | –
11 | – | stimulated | CC(C)CCC[C@@H](C)[C@H]1CC[C@H]2[C@@H]3CC=C4C[C@H](O)CC[C@]4(C)[C@H]3CC[C@]12C [Epicholesterol, 5-Cholesten-3α-ol] | 2.8 | –
